Legend:
platelet aggregation [1] = experiment: Platelet aggregation-inhibitory activity in vitro (collagen-induced, rat platelet rich plasma); format: cell-based; settings: for inhibition at 1 µM / inhibition at 0.1 µM / inhibition at 0.3 µM: read-out: in vitro Inhibitory ratio; for inhibition at 0.3 µM: 3 × 10^-7 M
Description: Platelet aggregation-inhibitory activity in vitro
Rat arterial blood was centrifuged to obtain platelet rich plasma.
Platelet aggregation inhibitory ratio was calculated by the following formula: [formula] Tc: Aggregation degree where only a solvent was added. Ts: Aggregation degree where a solution of the test compound was added.

platelet aggregation [2] = experiment: Platelet aggregation inhibitory activity ex vivo (by oral administration); format: in vivo, male Wistar ST rats; settings: 1 hour, collagen 7 to 10 μg/ml, rat
Description: Platelet aggregation inhibitory activity ex vivo (by oral administration)
A group of 8 male Wistar ST rats each weighing about 250 grams were used. To the test animal was orally administered 4 ml/kg of a solution made by suspending a test compound in 1% aqueous tragacanth solution, and one hour later blood was collected from common carotid artery with a cannula. […] The residue was further centrifuged by […] for 15 minutes and the supernatant was recovered as poor platelet plasma (PPP). The plasma samples were used for assaying the platelet aggregating ability.
As an aggregation inducer, 7 to 10 μg/ml of collagen (Hormon-Chemie) was used.
Platelet Aggregation-inhibitory ratio was calculated by the following formula: [formula] A: Aggregating ratio of the group (control) in which only 1% aqueous tragacanth solution was administered.
B: Aggregating ratio of the group in which a solution of the test compound in tragacanth solution was administered.

[3] = tested on: rat left coronary artery ligation-induced cardiac infarction; experiment: Activity to rat left coronary artery ligation-induced cardiac infarction; format: in vivo, male SD rats; settings: 60 minutes prior to ligation
Description: Activity of the compounds (I) to rat left coronary artery ligation-induced cardiac infarction
A group of 8 male SD rats weighing 200 to 250 g were used. The rats were fixed at the dosal position under light ether paralysis, subjected to longitudinal incission in about 1.5 cm along the sternal left line to make thoractonomy under breaking the heart sac and exposing the heart. After ligating the left main coronary artery at 1 to 2 mm from the origin with black blade silk suture (Hama Ika Kogyo, 4-0), the heart was returned at the original position and the breast was closed immediately. The bilateral breast was pressed to exclude the air in the thoracic cavity to resume respiration. […] Twenty-four hours after ligation, the blood was collected from the ventral vena cava, and the rat was killed by complete bleeding. The heart was taken out, and the cross circular slice (about 2 mm) at the central part of the heart was incubated at 37° C. in the dark for 20 minutes in 20 ml of 1% solution of TTC (tryphenyl tetrazolium chloride, Wako Junyaku) in 0.09 M phosphate buffer (pH 8.6). The slice was photographed under a stereoscopic microscope, and the colored slides were prepared therefrom. The slides were projected on the wall, and the sections, the infarction parts (TTC non-dyed part) and non-infarction parts (TTC dyed part), were traced. So, the area of the infarction part in the total section area was calculated. A solution made by suspending the test compound in 1% aqueous tragacanth solution was orally administered 60 minutes prior to the coronary artery ligation. [formula] A: Infarction ratio where only 1% tragacanth solution was administered for control.
B: Infarction ratio where the tragacanth solution containing the test compound was administered.

Row | SMILES | inhibition at 1 µM (platelet aggregation [1]; 10^-6 M) [%] | inhibition at 0.1 µM (platelet aggregation [1]; 10^-7 M) [%] | also measured
1 | CC(Nc1nnc(-c2ccccc2)c2ccccc12)c1ccccc1 (racemic) [1 (DL)] | 84 | 72.2 | ex vivo Inhibitory ratio (p.o.) (platelet aggregation [2]; 1 mg/kg p.o.): 76.2%; ex vivo Inhibitory ratio (p.o.) (platelet aggregation [2]; 3 mg/kg p.o.): 79.8%
2 | CCC(Nc1nnc(-c2ccccc2)c2ccccc12)c1ccccc1 (racemic) [2 (DL)] | 96.4 | 100 | ex vivo Inhibitory ratio (p.o.) (platelet aggregation [2]; 1 mg/kg p.o.): 37.8%; ex vivo Inhibitory ratio (p.o.) (platelet aggregation [2]; 3 mg/kg p.o.): 52.3%; ex vivo Inhibitory ratio (p.o.) (platelet aggregation [2]; 10 mg/kg p.o.): 94.5%
3 | CCCC(Nc1nnc(-c2ccccc2)c2ccccc12)c1ccccc1 (racemic) [3 (DL)] |  | 65.9 | inhibition at 0.3 µM (platelet aggregation [1]): 96.8%
4 | CC(C)C(Nc1nnc(-c2ccccc2)c2ccccc12)c1ccccc1 (racemic) [4 (DL)] | 96.6 | 49.3 | 
5 | CCCCC(Nc1nnc(-c2ccccc2)c2ccccc12)c1ccccc1 (racemic) [5 (DL)] | 98.4 | 20.6 | 
6 | CC(C)(C)C(Nc1nnc(-c2ccccc2)c2ccccc12)c1ccccc1 (racemic) [8 (DL)] | 100 | 100 | ex vivo Inhibitory ratio (p.o.) (platelet aggregation [2]; 1 mg/kg p.o.): 22.0%; ex vivo Inhibitory ratio (p.o.) (platelet aggregation [2]; 3 mg/kg p.o.): 35.1%; ex vivo Inhibitory ratio (p.o.) (platelet aggregation [2]; 10 mg/kg p.o.): 69.9%
7 | CC(Nc1nnc(-c2ccc(Cl)cc2)c2ccccc12)c1ccccc1 (racemic) [34 (DL)] | 100 |  | 
8 | Cc1ccc(C(C)Nc2nnc(-c3ccccc3)c3ccccc23)cc1 (racemic) [56 (DL)] |  | 92.9 | 
9 | Cc1cccc(C(C)Nc2nnc(-c3ccccc3)c3ccccc23)c1 (racemic) [57 (DL)] |  | 90.3 | ex vivo Inhibitory ratio (p.o.) (platelet aggregation [2]; 1 mg/kg p.o.): 61.8%
10 | Cc1ccccc1C(C)Nc1nnc(-c2ccccc2)c2ccccc12 (racemic) [58 (DL)] |  | 89.9 | 
11 | CCc1ccc(C(C)Nc2nnc(-c3ccccc3)c3ccccc23)cc1 (racemic) [59 (DL)] |  | 56.5 | 
12 | COc1ccc(C(C)Nc2nnc(-c3ccccc3)c3ccccc23)cc1 (racemic) [69 (DL)] |  | 21 | inhibition at 0.3 µM (platelet aggregation [1]): 74.7%
13 | COc1cccc(C(C)Nc2nnc(-c3ccccc3)c3ccccc23)c1 (racemic) [72 (DL)] | 94.8 | 14.9 | 
14 | COc1ccccc1C(C)Nc1nnc(-c2ccccc2)c2ccccc12 (racemic) [73 (DL)] |  | 93.3 | 
15 | COc1ccc(C(C)Nc2nnc(-c3ccccc3)c3ccccc23)cc1OC (racemic) [78 (DL)] |  | 6.2 | inhibition at 0.3 µM (platelet aggregation [1]): 93.6%
16 | CC(Nc1nnc(-c2ccccc2)c2ccccc12)c1ccc2c(c1)OCO2 (racemic) [79 (DL)] |  | 6.3 | inhibition at 0.3 µM (platelet aggregation [1]): 95.3%
17 | CC(Nc1nnc(-c2ccccc2)c2ccccc12)c1ccc(Cl)cc1 (racemic) [80 (DL)] |  | 26.3 | inhibition at 0.3 µM (platelet aggregation [1]): 93.3%

Row | SMILES | inhibition at 1 µM (platelet aggregation [1]; 10^-6 M) [%] | inhibition at 0.1 µM (platelet aggregation [1]; 10^-7 M) [%] | also measured
18 | CC(Nc1nnc(-c2ccccc2)c2ccccc12)c1cccc(Cl)c1 (racemic) [81 (DL)] | 98.3 | 40.7 | ex vivo Inhibitory ratio (p.o.) (platelet aggregation [2]; 10 mg/kg p.o.): 72.5%
19 | CC(Nc1nnc(-c2ccccc2)c2ccccc12)c1ccccc1Cl (racemic) [82 (DL)] | 65.5 |  | inhibition at 0.3 µM (platelet aggregation [1]): 58.5%
20 | CC(Nc1nnc(-c2ccccc2)c2ccccc12)c1ccc(F)cc1 (racemic) [85 (DL)] |  | 10.2 | inhibition at 0.3 µM (platelet aggregation [1]): 94.1%
21 | CC(Nc1nnc(-c2ccccc2)c2ccccc12)c1cccc(F)c1 (racemic) [86 (DL)] | 100 |  | ex vivo Inhibitory ratio (p.o.) (platelet aggregation [2]; 1 mg/kg p.o.): 40.5%
22 | CC(Nc1nnc(-c2ccccc2)c2ccccc12)c1ccccc1F (racemic) [87 (DL)] | 52.4 |  | 
23 | CC(Nc1nnc(-c2ccccc2)c2ccccc12)c1ccc(C(F)(F)F)cc1 (racemic) [91 (DL)] | 22.5 |  | 
24 | CC(Nc1nnc(-c2ccccc2)c2ccccc12)c1cccc(C(F)(F)F)c1 (racemic) [92 (DL)] | 89.5 | 1.5 | 
25 | C[C@@H](Nc1nnc(-c2ccccc2)c2ccccc12)c1ccccc1 [1 (D), D-1-α-methylbenzylamino-4-phenylphthalazine] |  |  | in vitro Inhibitory ratio (platelet aggregation [1]; 10^-6 M, 1 µM): 100%; in vitro Inhibitory ratio (platelet aggregation [1]; 10^-7 M, 0.1 µM): 100%; ex vivo Inhibitory ratio (p.o.) (platelet aggregation [2]; 1 mg/kg p.o.): 65.5%; ex vivo Inhibitory ratio (p.o.) (platelet aggregation [2]; 3 mg/kg p.o.): 80.2%; ex vivo Inhibitory ratio (p.o.) (platelet aggregation [2]; 10 mg/kg p.o.): 88.5%; Cardiac infarction inhibitory ratio ([3]; 2 mg/kg p.o.): 81.1%; Cardiac infarction inhibitory ratio ([3]; 10 mg/kg p.o.): 76.6%
26 | CC(=O)Oc1ccccc1C(=O)O [Aspirin, reference compound] |  |  | Cardiac infarction inhibitory ratio ([3]; 100 mg/kg p.o.): 10.7%
27 | CC(C)(Nc1nnc(-c2ccccc2)c2ccccc12)c1ccccc1 [Compound No. 119, 1-α,α-dimethylbenzylamino-4-phenylphthalazine] |  | 93 | 
28 | c1ccc(CCCNc2nnc(-c3ccccc3)c3ccccc23)cc1 [Control 3, reference compound] | 40.7 | 12.6 | 
29 | CC(Cc1ccccc1)Nc1nnc(-c2ccccc2)c2ccccc12 (centres unmarked) [Control 4, reference compound] | 7.1 |  | 
30 | Clc1ccccc1CN1CCc2sccc2C1 [Ticlopidine, reference compound] |  |  | Cardiac infarction inhibitory ratio ([3]; 30 mg/kg p.o.): 10.1%
31 | c1ccc(-c2nnc(NC3(c4ccccc4)CCCCC3)c3ccccc23)cc1 [compound 136] |  | 94.7 | 
32 | Cc1ccc(C(C)(C)Nc2nnc(-c3ccccc3)c3ccccc23)cc1 [compound 166] | 100 | 100 | 
33 | Cc1cccc(C(C)(C)Nc2nnc(-c3ccccc3)c3ccccc23)c1 [compound 167] | 100 | 100 | 
